For one assay, the system named is fusarium. The conditions noted are these: in the literature; cited from earlier work.
The test system of a further assay is powdery mildew. Briefly: Sprays against powdery mildew infestations on nursery grown plants. Format: in vivo. As to conditions: for eliminating infestations of powdery mildew: single ingredient sprayed at 1 tablespoon per gallon of water, nursery grown roses, gerbera daisies, ornamental peas, trumpet vines, chrysanthemums, grapevines. From the text:
One hundred grams of potassium bicarbonate is blended with one hundred grams of carrageenan.

The subject of assay [1] is Tomato Russet Mite (Aculops lycopersici). As to conditions: sprays on young tomato plants naturally infested. The source says:
Fifty grams of potassium sorbate and fifty grams of sodium bicarbonate are mixed with one hundred grams of carrageenan.

Take `O=C([O-])O.[K+]` [potassium bicarbonate]: the “efficacy against fusarium, each product separately” value in the assay with fusarium was “shown efficacy”.

Turning to `C/C=C/C=C/C(=O)[O-].[K+]` [potassium sorbate], in the assay with powdery mildew, the “eliminating infestations of powdery mildew” value was “ineffective”. Moreover, the “effect on Tomato Russet Mites” value in assay [1] was “no effect”.

Regarding `O=C([O-])O.[Na+]` [sodium bicarbonate], the “effect on powdery mildew that had overwintered on ornamental pea leaves” value in the assay with powdery mildew (overwintered powdery mildew, ornamental pea leaves) was “unaffected”. Also, the “eliminating infestations of powdery mildew” value in the assay on powdery mildew is given as “ineffective”.
